From patent US20230210110A1, “METHOD FOR INDUCING ENVIRONMENTAL STRESS TOLERANCE IN PLANTS” (AJINOMOTO CO., INC., priority 2020, published 2023)
Entries after “also recorded” stand apart in the source; their conditions may differ.

Experiments:
[1] = system: RD29A, RD29B, MAPKKK18, ABF3F and SLAC1 genes; test: Induction of expression of environmental stress tolerance (ABA-responsive) genes, real-time PCR, relative to GAPDH; format: in vivo, Arabidopsis thaliana; conditions: for activity of synergistically enhancing the effect of ABA: RD29B expression, amino acid in combination with ABA
Experimental: (§1) Four to six young Arabidopsis thaliana plants grown on a 50% concentration MS (Murashige-Skoog) agar medium were transferred to a 6-well plate containing a 50% concentration MS (Murashige-Skoog) liquid medium and pre-cultured for 16 hours, then added with a treatment solution containing each amino acid alone or a treatment solution containing a combination of each amino acid and ABA, and left for 6 hours. Then, RNA was then isolated from the plants with a nucleic acid purification kit (Promega, Maxwell (registered trademark) 16 LEV simplyRNA Tissue Kit). Then, cDNA was synthesized with a cDNA synthesis reagent for real-time PCR (Toyobo, ReverTra Ace (registered trademark) qPCR RT Master Mix).
MAPKKK18 is a gene encoding a kinase (MAPKKK18, MITOGEN-ACTIVATED PROTEIN KINASE KINASE KINASE 18) that functions in the ABA signaling pathway of Arabidopsis thaliana (Zelicourt A. et al., Trends in Plant Science 21: (2016)). RD29A and RD29B are genes encoding hydrophilic proteins (RESPONSIVE TO DESICCATION 29A, RESPONSIVE TO DESICCATION 29B) that are responsive for ABA and environmental stress such as drought stress and salinity stress and considered to be involved in stress tolerance and senescence suppression (Yang S. D. et al., Plant Cell 6: 2155-2168 (2011)). ABF3 is a gene encoding a transcription factor (ABA-responsive element-binding protein) that regulates expression of ABA-responsive genes (Yoshida T. et al., Plant, cell and Environment 38: 35-49 (2015)). SLAC1 is a gene encoding an anion channel involved in stomatal closure (Yoshida et al., J Plant Res (2016) 129:39-49). GAPDH is a glyceraldehyde-3-phosphate dehydrogenase gene and was selected as an internal standard.
The expression levels of the genes were calculated as relative expression levels to the GAPDH gene. Twenty amino acids were divided into 10 each, and the gene expression inducing activity when combined with ABA was evaluated in two tests (n=2).
(§2) The expression levels of the respective genes were calculated as relative expression levels to the GAPDH gene in the same manner as in Example 1.
Separately, Arabidopsis thaliana was treated with a combination of 0.1 mM, 0.25 mM, 1 mM, 2.5 mM, 10 mM, or 25 mM of Lys and 0.25 μM of ABA in the same manner as in Example 1, and expression of MAPKKK18, RD29A, and RD29B genes after 6 hours of treatment was analyzed (n=3). The expression levels of the respective genes were calculated as relative expression levels to the GAPDH gene in the same manner as in Example 1. […]
as §2, §2

Arabidopsis thaliana [2] = test: Drought stress tolerance: dehydration amount during cultivation without water supply; format: in vivo; conditions: spray, control approximately 77%
Experimental: A test for verifying an effect of conferring drought stress tolerance by a combination of Lys and ABA was carried out (n=4). For Arabidopsis thaliana grown on rockwool under short-day conditions for 35 days, the weight of the rockwool and the whole plant was measured, to determine the initial weight. Arabidopsis thaliana was spray treated with 2.5 mM of Lys and 5 μM or 50 μM of ABA alone or in combination (first spray treatment). As a control treatment group, Arabidopsis thaliana was spray treated with DMSO (first spray treatment). After the first spray treatment, cultivation was continued for 7 days without water supply. During cultivation, a second spray treatment was carried out 4 days after the first spray treatment. The weight of the rockwool and the whole plant was measured 4 and 7 days after the first spray treatment, to determine the post-cultivation weight. The post-cultivation weight was subtracted from the initial weight, to determine the dehydration amount during cultivation.

Arabidopsis thaliana [3] = test: Drought stress tolerance: survival rate after drought and re-watering; format: in vivo; conditions: 12 days after spray, water supplied again at 9 days; 50 μM ABA (2.5 mM Lys in the combination); Mock 8.5%
Experimental: A test for verifying an effect of conferring drought stress tolerance by a combination of Lys and ABA was carried out. Arabidopsis thaliana grown on rockwool under short-day conditions for 35 days was spray treated with 50 μM of ABA alone or with 2.5 mM of Lys and 50 μM of ABA in combination. As a control treatment group (Mock), Arabidopsis thaliana was spray treated with DMSO. After the spray treatment, cultivation was continued without water supply, to subject Arabidopsis thaliana to drought stress. Water was again supplied to Arabidopsis thaliana 9 days after the spray treatment, and the survival rate was measured 12 days after the spray treatment (n=94-96).

Wheat (Norin 61) = test: Drought stress tolerance of wheat: water loss and survival rate; format: in vivo; conditions: 10 μM ABA (2.5 mM Lys in the combination)
Experimental: A test for verifying an effect of conferring drought stress tolerance by a combination of Lys and ABA in wheat was carried out. Wheat (Norin 61) grown on rockwool under long-day conditions for 13 days was spray treated with 10 μM of ABA alone or with 2.5 mM or 10 mM of Lys and 10 μM of ABA in combination. As a control treatment group (Mock), the wheat was spray treated with DMSO. After the spray treatment, cultivation was continued without water supply, to subject wheat to drought stress. During cultivation, the water loss from the rockwool was measured. Water was again supplied to the wheat 21 days after the spray treatment, and the survival rate was measured 23 days after the spray treatment (n=24).

tomato (variety Caramba) = test: Yield of tomato under drought stress, greenhouse pot test; format: in vivo; conditions: for Yield (g/plot accumulation): drought stress 50% water, four foliar sprays, ABA is (S)-(+)-abscisic acid, Lys is L-Lys hydrochloride, control with drought 924.2; for % to T2: yield relative to control with drought stress (T2)
Experimental: A pot test of tomato was carried out in a greenhouse in Valencia, Spain. The test was carried out using 20 pots (=20 replications) of tomatoes grown on pots of 0.3 m^2 size. The variety of tomato used was Caramba. Abscisic acid used was (S)-(+)-abscisic acid and Lys used was L-Lys hydrochloride. Foliar spray treatments were carried out four times. The first treatment was carried out at time 61 on the BBCH scale (BBCH61: when the first flower of the first inflorescence bloomed), the second treatment was carried out 21 days after the first treatment, the third treatment was carried out 14 days after the second treatment, and the fourth treatment was carried out 14 days after the third treatment. A harvest survey was carried out at time 82 on the BBCH scale (BBCH82: when 20% of the fruit were fully ripe and colored).

RD29B and MAPKKK18 = test: Effect of Lys derivatives and nitrogen-containing compounds on induction of environmental stress tolerance genes by ABA (activity level); format: in vivo, Arabidopsis thaliana; conditions: total of induction activities of RD29B and MAPKKK18 with 1 mM compound and 0.25 μM ABA, relative to ABA alone taken as 1; >1 enhanced, 1 no effect, <1 suppressed
Experimental: as §1
GAPDH is a glyceraldehyde-3-phosphate dehydrogenase gene and was selected as an internal standard.
Lys or each Lys derivative is used for treatment at 1 mM and ABA at 0.25 μM.

[4] = system: RD29A, RD29B, MAPKKK18, ABF3F and SLAC1 genes; test: Induction of expression of environmental stress tolerance (ABA-responsive) genes, real-time PCR, relative to GAPDH; format: in vivo, Arabidopsis thaliana; conditions: amino acid alone or combination with ABA, 6 hours, n=3
[5] = MAPKKK18, RD29A, RD29B, 0.05-2.5 mM Lys with 0.25 μM ABA, 6 hours, upper panel of FIG. 3

SMILES: CC1=CC(=O)CC(C)(C)C1(O)/C=C/C(C)=C\C(=O)O (racemic) [ABA, abscisic acid, reference compound]
- Expression induction of RD29A and RD29B genes by ABA ([1]; wild-type strain (WT, Col-0), 0.25 μM ABA, 6 hours): observed
- dehydration amount on the 4th day (Arabidopsis thaliana [2]; 5 μM ABA (2.5 mM Lys in the combination)): approximately 80.1%
- dehydration amount on the 4th day (Arabidopsis thaliana [2]; 50 μM ABA (2.5 mM Lys in the combination)): approximately 57%
- survival rate (Arabidopsis thaliana [3]): 13.5%
- survival rate (Wheat (Norin 61); 23 days after spray, water supplied again at 21 days, Mock 9.4%): 6.7%
- dehydration amount on the 5th day (Wheat (Norin 61); spray, control approximately 84%): approximately 61%
- dehydration amount on the 6th day (Wheat (Norin 61); spray, control approximately 91%): approximately 82%
- Yield (g/plot accumulation) (tomato (variety Caramba); 10 μM ABA and/or 2.5 mM Lys): 1008.1 g/plot
- Yield (g/plot accumulation) (tomato (variety Caramba); 100 μM ABA and/or 25 mM Lys): 1081.6 g/plot
- % to T2 (tomato (variety Caramba); 10 μM ABA and/or 2.5 mM Lys): 109.1%
- % to T2 (tomato (variety Caramba); 100 μM ABA and/or 25 mM Lys): 117.0%
- Activity level (RD29B and MAPKKK18): 1

SMILES: NCCCC[C@H](N)C(=O)O [No. 1, lysine]
- activity of synergistically enhancing the effect of the natural-type ABA ([1]; Lys in combination with natural-type ABA ((S)-(+)-ABA)): synergistically enhance the effect of the natural-type ABA
- Lys concentrations at which Lys concentration-dependent improvement in expression inducing activity was observed [1, 5]: ≥ 0.25 mM
- Lys concentrations at which no improvement in expression inducing activity was observed [1, 5]: ≤ 0.1 mM
- Lys concentration-dependent improvement in expression inducing activity ([1]; MAPKKK18, RD29A, RD29B, 0.1-25 mM Lys with 0.25 μM ABA, 6 hours, lower panel of FIG. 3): at least up to Lys concentrations of 10 mM or 25 mM
- effect of Lys on inducing expression of environmental stress tolerance genes by ABA ([1]; MAPKKK18 and RD29B, 1 mM Lys in combination with 0.25 μM ABA, 6 hours): enhanced
- effect of Lys on inducing expression of environmental stress tolerance genes by ABA agonist ([1]; MAPKKK18 and RD29B, 1 mM Lys in combination with opabactin (OP), 6 hours): enhanced
- effect of Lys on inducing expression of environmental stress tolerance genes by ABA agonist ([1]; MAPKKK18 and RD29B, 1 mM Lys in combination with quinabactin (QB), 6 hours): enhanced
- activity of synergistically enhancing the effect of ABA ([1]; listed as Lys): synergistically enhance the effect of ABA; also recorded: significantly high activity
- effect of enhancing the ABA activity by Lys ([1]; wild-type strain, 0.5 mM Lys with 0.25 μM ABA, 6 hours): observed
- Yield (g/plot accumulation) (tomato (variety Caramba); 10 μM ABA and/or 2.5 mM Lys): 1089.3 g/plot
- Yield (g/plot accumulation) (tomato (variety Caramba); 100 μM ABA and/or 25 mM Lys): 1114.6 g/plot
- % to T2 (tomato (variety Caramba); 10 μM ABA and/or 2.5 mM Lys): 117.9%
- % to T2 (tomato (variety Caramba); 100 μM ABA and/or 25 mM Lys): 120.6%
- activity to induce expression of the environmental stress tolerance gene RD29B [4]: No activity

SMILES: N[C@@H](Cc1c[nH]c2ccccc12)C(=O)O [Trp, tryptophan]
- activity of synergistically enhancing the effect of ABA [1]: synergistically enhance the effect of ABA
- activity to induce expression of the environmental stress tolerance gene RD29B [4]: No activity

SMILES: CC(C)[C@H](N)C(=O)O [Val, valine]
- activity of synergistically enhancing the effect of ABA [1]: synergistically enhance the effect of ABA
- activity to induce expression of the environmental stress tolerance gene RD29B ([1]; amino acid alone or combination with ABA, 6 hours, n=3): No activity
